Measured values taken from US10780090B2, “Heteroaryl compounds useful as inhibitors of SUMO activating enzyme” (Millennium Pharmaceuticals, Inc., priority 2014, dated 2020).
Where two headings read alike, the source gives them in different places.

Target: recombinant human SAE enzyme (Homo sapiens (Human), UniProt Q9UBT2)
Test: SAE HTRF enzyme assay
Format: biochemical
Conditions: for inhibition at 0.111 µM: read-out: Percent Inhibition
Procedure, shortened: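 HTRF read-out using Eu-cryptate anti-Flag and allophycocyanin anti-GST antibodies, added with EDTA stop buffer and read after 2 h at 24 °C. The preceding reaction ran 105 min at 24 °C: 0.11 nM recombinant SAE, 0.5 μM ATP, Sumo-Flag, Ubc9-GST, pH 7.5. Values given as single-concentration inhibition or IC50.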

[1] = SAE inhibition at compound concentration 0.111 μM
[2] = SAE inhibition, class symbols, legend in nM

Chain of recombinant human SAE enzyme (Q9UBT2 whole entry): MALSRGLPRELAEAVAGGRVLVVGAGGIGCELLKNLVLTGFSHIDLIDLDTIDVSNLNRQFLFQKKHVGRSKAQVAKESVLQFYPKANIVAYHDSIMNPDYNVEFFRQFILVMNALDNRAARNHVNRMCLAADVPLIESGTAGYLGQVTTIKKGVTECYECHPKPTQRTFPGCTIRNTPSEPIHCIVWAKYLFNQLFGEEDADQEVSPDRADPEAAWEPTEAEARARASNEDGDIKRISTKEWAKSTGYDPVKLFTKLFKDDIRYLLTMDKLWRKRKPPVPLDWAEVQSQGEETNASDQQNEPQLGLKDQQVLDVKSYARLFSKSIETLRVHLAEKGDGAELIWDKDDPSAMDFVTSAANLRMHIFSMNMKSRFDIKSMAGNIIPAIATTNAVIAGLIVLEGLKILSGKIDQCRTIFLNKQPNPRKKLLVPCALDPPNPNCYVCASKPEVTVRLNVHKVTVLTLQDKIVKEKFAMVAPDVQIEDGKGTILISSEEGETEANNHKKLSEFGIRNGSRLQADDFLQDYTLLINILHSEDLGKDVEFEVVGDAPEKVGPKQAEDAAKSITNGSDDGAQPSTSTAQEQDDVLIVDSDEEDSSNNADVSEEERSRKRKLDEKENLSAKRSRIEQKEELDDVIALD
Chain of recombinant human SAE enzyme (Q9UBE0 whole entry partner): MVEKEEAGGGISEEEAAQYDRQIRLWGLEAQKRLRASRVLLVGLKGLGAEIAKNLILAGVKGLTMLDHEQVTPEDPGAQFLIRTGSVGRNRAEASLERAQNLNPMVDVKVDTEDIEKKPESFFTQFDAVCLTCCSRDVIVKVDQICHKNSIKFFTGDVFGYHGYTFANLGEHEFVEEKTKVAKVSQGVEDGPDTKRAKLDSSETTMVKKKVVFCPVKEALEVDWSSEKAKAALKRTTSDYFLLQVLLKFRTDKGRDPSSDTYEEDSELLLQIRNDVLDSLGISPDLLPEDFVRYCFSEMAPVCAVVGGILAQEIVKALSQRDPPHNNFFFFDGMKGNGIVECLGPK

Compound | Percent Inhibition (Concentration 0.111 μM) | IC50 (class symbols A/B/C) [nM] | other results
NS(=O)(=O)OC[C@H]1C[C@@H](Nc2ncncc2C(=O)c2cc([C@@H]3CCCc4ccc(Cl)cc43)cs2)C[C@@H]1O (single isomer, unassigned) [I-335b, [(1R,2S,4R)-4-{[5-({4-[(1R)-7-chloro-1,2,3,4-tetrahydronaphthalen-1-yl]-2-thienyl}carbonyl)pyrimidin-4-yl]amino}-2-hydroxycyclopentyl]methyl sulfamate or [(1R,2S,4R)-4-{[5-({4-[(1S)-7-chloro-1,2,3,4-tetrahydronaphthalen-1-yl]-2-thienyl}carbonyl)pyrimidin-4-yl]amino}-2-hydroxycyclopentyl]methyl sulfamate] | – | – | Percent Inhibition [1]: 41%; IC50 [2]: 100 to 1000 nM
CN1Cc2ccc(Cl)cc2[C@@H]1c1cc(C(=O)c2cncnc2N[C@@H]2C[C@H](COS(N)(=O)=O)[C@@H](O)C2)sc1Cl (single isomer, unassigned) [I-284b, [(1R,2S,4R)-4-{[5-({5-chloro-4-[(1R)-6-chloro-2-methyl-2,3-dihydro-1H-isoindol-1-yl]-2-thienyl}carbonyl)pyrimidin-4-yl]amino}-2-hydroxycyclopentyl]methyl sulfamate or [(1R,2S,4R)-4-{[5-({5-chloro-4-[(1S)-6-chloro-2-methyl-2,3-dihydro-1H-isoindol-1-yl]-2-thienyl}carbonyl)pyrimidin-4-yl]amino}-2-hydroxycyclopentyl]methyl sulfamate] | – | – | Percent Inhibition [1]: 99%; IC50 [2]: < 10 nM
CC[C@H](C)[C@H](N)C(=O)O[C@H]1C[C@H](Nc2ncncc2C(=O)c2cc([C@@H]3OCCc4ccc(Cl)cc43)c(C)s2)C[C@@H]1COS(N)(=O)=O.Cl [I-363] | – | – | Percent Inhibition [1]: 57%
NS(=O)(=O)OC[C@H]1C[C@@H](Nc2ncncc2C(=O)c2cc([C@H]3NCCc4ccccc43)c(Cl)s2)C[C@@H]1O (single isomer, unassigned) [I-279b, [(1R,2S,4R)-4-{[5-({5-chloro-4-[(1S)-1,2,3,4-tetrahydroisoquinolin-1-yl]-2-thienyl}carbonyl)pyrimidin-4-yl]amino}-2-hydroxycyclopentyl]methyl sulfamate or [(1R,2S,4R)-4-{[5-({5-chloro-4-[(1R)-1,2,3,4-tetrahydroisoquinolin-1-yl]-2-thienyl}carbonyl)pyrimidin-4-yl]amino}-2-hydroxycyclopentyl]methyl sulfamate] | 84 | 10 to 100 | –
Cc1sc(C(=O)c2cncnc2N[C@@H]2C[C@H](COS(N)(=O)=O)[C@@H](O)C2)cc1-c1nccc2ccc(Cl)cc12 [I-358, [(1R,2S,4R)-4-[[5-[4-(7-chloro-1-isoquinolyl)-5-methyl-thiophene-2-carbonyl]pyrimidin-4-yl]amino]-2-hydroxy-cyclopentyl]methyl sulfamate] | – | – | inhibition at 0.111 µM [1]: 96%; IC50 [2]: < 10 nM
N#Cc1cccc(Cc2csc(C(=O)c3cncnc3N[C@@H]3C[C@H](COS(N)(=O)=O)[C@@H](O)C3)c2)c1 [I-185, {(1R,2S,4R)-4-[(5-{[4-(3-cyanobenzyl)-2-thienyl]carbonyl}pyrimidin-4-yl)amino]-2-hydroxycyclopentyl}methyl sulfamate] | – | 10 to 100 | inhibition at 0.111 µM (Concentration 0.111 μM): 80%
NS(=O)(=O)OC[C@H]1C[C@@H](Nc2ncncc2C(=O)c2cc(Cn3cnc(Br)c3)cs2)C[C@@H]1O [I-243, [(1R,2S,4R)-4-{[5-({4-[(4-bromo-1H-imidazol-1-yl)methyl]-2-thienyl}carbonyl)pyrimidin-4-yl]amino}-2-hydroxycyclopentyl]methyl sulfamate] | – | 100 to 1000 | inhibition at 0.111 µM (Concentration 0.111 μM): 19%
NC(c1cccc(Br)n1)c1cc(C(=O)c2cncnc2NC2CC(O)C(COS(N)(=O)=O)C2)sc1Cl (mixture of isomers) [I-18, [(1R,2S,4R)-4-{[5-({4-[(R)-amino(6-bromopyridin-2-yl)methyl]-5-chloro-2-thienyl}carbonyl)pyrimidin-4-yl]amino}-2-hydroxycyclopentyl]methyl sulfamate and [(1R,2S,4R)-4-{[5-({4-[(S)-amino(6-bromopyridin-2-yl)methyl]-5-chloro-2-thienyl}carbonyl)pyrimidin-4-yl]amino}-2-hydroxycyclopentyl]methyl sulfamate] | 99 | < 10 | –
Cc1sc(C(=O)c2cncnc2N[C@@H]2C[C@H](COS(N)(=O)=O)[C@@H](O)C2)cc1[C@H](N)c1cccc(Cl)c1 (single isomer, unassigned) [I-6a, [(1R,2S,4R)-4-{[5-({4-[(R)-amino(3-chlorophenyl)methyl]-5-methyl-2-thienyl}carbonyl)pyrimidin-4-yl]amino}-2-hydroxycyclopentyl]methyl sulfamate or [(1R,2S,4R)-4-{[5-({4-[(S)-amino(3-chlorophenyl)methyl]-5-methyl-2-thienyl}carbonyl)pyrimidin-4-yl]amino}-2-hydroxycyclopentyl]methyl sulfamate] | 98 | < 10 | –
NS(=O)(=O)OC[C@H]1C[C@@H](Nc2ncncc2C(=O)c2cc(CC3=CCSCC3)cs2)C[C@@H]1O [I-173, {(1R,2S,4R)-4-[(5-{[4-(3,6-dihydro-2H-thiopyran-4-ylmethyl)-2-thienyl]carbonyl}pyrimidin-4-yl)amino]-2-hydroxycyclopentyl}methyl sulfamate] | – | 10 to 100 | inhibition at 0.111 µM (Concentration 0.111 μM): 86%
Cc1sc(C(=O)c2cncnc2N[C@@H]2C[C@H](COS(N)(=O)=O)[C@@H](O)C2)cc1[C@@]1(c2ccccc2)CCCO1 (mixture of isomers) [I-121, [(1R,2S,4R)-2-hydroxy-4-{[5-({5-methyl-4-[(2S)-2-phenyltetrahydrofuran-2-yl]-2-thienyl}carbonyl)pyrimidin-4-yl]amino}cyclopentyl]methyl sulfamate and [(1R,2S,4R)-2-hydroxy-4-{[5-({5-methyl-4-[(2R)-2-phenyltetrahydrofuran-2-yl]-2-thienyl}carbonyl)pyrimidin-4-yl]amino}cyclopentyl]methyl sulfamate] | 98 | < 10 | –
NS(=O)(=O)OC[C@H]1C[C@@H](Nc2ncncc2C(=O)c2cc(S(=O)(=O)c3cccc(Cl)c3)c(Cl)s2)C[C@@H]1O [I-203, [(1R,2S,4R)-4-{[5-({5-chloro-4-[(3-chlorophenyl)sulfonyl]-2-thienyl}carbonyl)pyrimidin-4-yl]amino}-2-hydroxycyclopentyl]methyl sulfamate] | – | 10 to 100 | inhibition at 0.111 µM (Concentration 0.111 μM): 58%
NS(=O)(=O)OC[C@H]1C[C@@H](Nc2ncncc2C(=O)c2cc(S(=O)(=O)c3ccccc3)cs2)C[C@@H]1O [I-200, {(1R,2S,4R)-2-Hydroxy-4-[(5-[4-(phenylsulfonyl)-2-thienyl]carbonyl}pyrimidin-4-yl)amino]cyclopentyl}methyl sulfamate] | 62 | 10 to 100 | –
NS(=O)(=O)OC[C@H]1C[C@@H](Nc2ncncc2C(=O)c2cc([C@@H]3NCCc4ccc(Br)cc43)c(Cl)s2)C[C@@H]1O (single isomer, unassigned) [I-251b, [(1R,2S,4R)-4-{[5-({4-[(1R)-7-bromo-1,2,3,4-tetrahydroisoquinolin-1-yl]-5-chloro-2-thienyl}carbonyl)pyrimidin-4-yl]amino}-2-hydroxycyclopentyl]methyl sulfamate or [(1R,2S,4R)-4-{[5-({4-[(1S)-7-bromo-1,2,3,4-tetrahydroisoquinolin-1-yl]-5-chloro-2-thienyl}carbonyl)pyrimidin-4-yl]amino}-2-hydroxycyclopentyl]methyl sulfamate] | 97 | < 10 | –
NS(=O)(=O)OC[C@H]1C[C@@H](Nc2ncncc2C(=O)c2cc([C@@H]3OCC4(CC4)c4ccccc43)cs2)C[C@@H]1O (single isomer, unassigned) [I-281b, [(1R,2S,4R)-2-hydroxy-4-{[5-({4-[(1′R)-1′H-spiro[cyclopropane-1,4′-isochromen]-1′-yl]-2-thienyl}carbonyl)pyrimidin-4-yl]amino}cyclopentyl]methyl sulfamate or [(1R,2S,4R)-2-hydroxy-4-{[5-({4-[(1′S)-1′H-spiro[cyclopropane-1,4′-isochromen]-1′-yl]-2-thienyl}carbonyl)pyrimidin-4-yl]amino}cyclopentyl]methyl sulfamate] | – | – | Percent Inhibition [1]: 99%; IC50 [2]: < 10 nM
NS(=O)(=O)OC[C@H]1C[C@@H](Nc2ncncc2C(=O)c2cc([C@@H]3NCCc4ccc(Cl)cc43)c(Cl)o2)C[C@@H]1O (single isomer, unassigned) [I-299a, {(1R,2S,4R)-4-[(5-{5-chloro-4-[(1R)-7-chloro-1,2,3,4-tetrahydroisoquinolin-1-yl]-2-furoyl}pyrimidin-4-yl)amino]-2-hydroxycyclopentyl}methyl sulfamate or {(1R,2S,4R)-4-[(5-{5-chloro-4-[(1S)-7-chloro-1,2,3,4-tetrahydroisoquinolin-1-yl]-2-furoyl}pyrimidin-4-yl)amino]-2-hydroxycyclopentyl}methyl sulfamate] | – | – | Percent Inhibition [1]: 101%; IC50 [2]: < 10 nM
NS(=O)(=O)OC[C@H]1C[C@@H](Nc2ncncc2C(=O)c2cc([C@@H]3OCCc4ccc(Br)cc43)cs2)C[C@@H]1O (single isomer, unassigned) [I-268a, [(1R,2S,4R)-4-{[5-({4-[(1R)-7-bromo-3,4-dihydro-1H-isochromen-1-yl]-2-thienyl}carbonyl)pyrimidin-4-yl]amino}-2-hydroxycyclopentyl]methyl sulfamate or [(1R,2S,4R)-4-{[5-({4-[(1S)-7-bromo-3,4-dihydro-1H-isochromen-1-yl]-2-thienyl}carbonyl)pyrimidin-4-yl]amino}-2-hydroxycyclopentyl]methyl sulfamate] | 50 | 100 to 1000 | –
